From patent publication US5665586A, “Protease from Streptomyces fradiae” (Shionogi & Co., Ltd., priority 1992, dated 1997)
Like-named read-outs stand apart in the source and are kept apart here. One block for each compound: values may come before it. Where a SMILES comes first, the peptide text is derived from it. The star is where a group is joined. pNA = O=[N+]([O-])c1ccc(N*)cc1; Cbz = O=C(OCc1ccccc1)*; Boc = CC(C)(C)OC(=O)*; CH2Cl = ClC*

Experiments:
SFase [1] = target: T1, SFase (Streptomyces fradiae, UniProt Q03424); experiment: Effect of inhibitors on SFase (residual activity, substrate Z-Phe-Leu-Glu-pNA); type: biochemical
SFase [2] = target: T1, SFase; experiment: Substrate specificity of SFase on synthetic pNA substrates (p-nitroaniline release, A410 nm); type: biochemical; details: 50 mM Tris-HCl, 2 mM CaCl2, pH 7.5, 25° C.
Procedure: 1. […] The present enzyme was added thereto to cause a reaction at a temperature of 25° C. By measuring the absorbance (410 nm) of p-nitroaniline released through the enzymatic reaction into the reaction solution, the amount (A410 nm) of p-nitroaniline released per mg each substrate per 1 minute was calculated.

[3] = inhibitor 0.5 mM, preincubation 37° C., 1 hour, enzyme 1.0 μg/ml, 0.2 mM Z-Phe-Leu-Glu-pNA, pH 7.5, 25° C., read-out: Residual Activity (%)
[4] = pH 7.5, read-out: Residual Activity (%)

T1 sequence (Q03424 171-357): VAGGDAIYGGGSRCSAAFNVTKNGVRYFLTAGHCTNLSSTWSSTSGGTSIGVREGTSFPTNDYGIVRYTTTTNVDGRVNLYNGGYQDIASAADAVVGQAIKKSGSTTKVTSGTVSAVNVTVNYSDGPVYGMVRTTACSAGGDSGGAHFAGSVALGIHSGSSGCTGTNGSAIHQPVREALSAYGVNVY

remaining activity at 500 µM (SFase [1]; [3]): 102%
Structure (SMILES): C[C@H](NC(=O)[C@H](C)NC(=O)[C@H](C)NC(=O)OC(C)(C)C)C(=O)CCl [Boc--Ala--Ala--Ala--CK]

amount (A410 nm) of p-nitroaniline released per mg per 1 minute (SFase [2]; substrate 0.20 mM, DMF 2.0%): 14.3 A 410 nm /mg/min
Structure (SMILES): C[C@H](NC(=O)OC(C)(C)C)C(=O)N[C@@H](C)C(=O)N[C@@H](CC(=O)O)C(=O)Nc1ccc([N+](=O)[O-])cc1 [Boc--Ala--Ala--Asp--pNA] (Boc-Ala-Ala-Asp-pNA)

amount (A410 nm) of p-nitroaniline released per mg per 1 minute (SFase [2]; substrate 0.20 mM, DMF 2.0%): 126.2 A 410 nm /mg/min
Structure (SMILES): C[C@H](NC(=O)OC(C)(C)C)C(=O)N[C@@H](C)C(=O)N[C@@H](CCC(=O)O)C(=O)Nc1ccc([N+](=O)[O-])cc1 [Boc--Ala--Ala--Glu--pNA] (Boc-Ala-Ala-Glu-pNA)

inhibition of SFase (in words) (SFase [1]; Table 2): completely inhibited
Structure (SMILES): CC(C)C[C@H](NC(=O)[C@H](Cc1ccccc1)NC(=O)OC(C)(C)C)C(=O)N[C@@H](CCC(=O)O)C(=O)CCl [Boc-Phe-Leu-Glu-chloromethylketone] (Boc-Phe-Leu-Glu-CH2Cl)

amount (A410 nm) of p-nitroaniline released per mg per 1 minute (SFase [2]; substrate 0.50 mM, DMSO 1.0%): 0 A 410 nm /mg/min
Structure (SMILES): N=C(N)NCCC[C@H](NC(=O)c1ccccc1)C(=O)Nc1ccc([N+](=O)[O-])cc1 [Bz--Arg--pNA]

amount (A410 nm) of p-nitroaniline released per mg per 1 minute (SFase [2]; substrate 0.02 mM, DMF 2.0%): 0 A 410 nm /mg/min
Structure (SMILES): O=C(N[C@@H](Cc1ccc(O)cc1)C(=O)Nc1ccc([N+](=O)[O-])cc1)c1ccccc1 [Bz--Tyr--pNA]

Structure (SMILES): O=C(O)CN(CCN(CC(=O)O)CC(=O)O)CC(=O)O [EDTA, ethylenediaminetetraacetic acid]
inhibition of SFase (in words) (SFase [1]): not inhibited | remaining activity at 100 µM (SFase [1]; [4]): 110% | remaining activity at 1000 µM (SFase [1]; [4]): 113% | remaining activity at 10000 µM (SFase [1]; [4]): 126%

amount (A410 nm) of p-nitroaniline released per mg per 1 minute (SFase [2]; substrate 2.00 mM, no solvent): 0 A 410 nm /mg/min
Structure (SMILES): CC(C)C[C@H](N)C(=O)Nc1ccc([N+](=O)[O-])cc1 [Leu--pNA]

inhibition of SFase (in words) (SFase [1]; Table 2): not inhibited | remaining activity at 100 µM (SFase [1]; inhibitor 0.1 mM, preincubation 37° C., 1 hour, enzyme 1.0 μg/ml, 0.2 mM Z-Phe-Leu-Glu-pNA, pH 7.5, 25° C., read-out: Residual Activity (%)): 106% | remaining activity at 1000 µM (SFase [1]; inhibitor 1.0 mM, preincubation 37° C., 1 hour, enzyme 1.0 μg/ml, 0.2 mM Z-Phe-Leu-Glu-pNA, pH 7.5, 25° C., read-out: Residual Activity (%)): 108% | remaining activity at 10000 µM (SFase [1]; inhibitor 10.0 mM, preincubation 37° C., 1 hour, enzyme 1.0 μg/ml, 0.2 mM Z-Phe-Leu-Glu-pNA, pH 7.5, 25° C., read-out: Residual Activity (%)): 104%
Structure (SMILES): c1cnc2c(c1)ccc1cccnc12 [OP, o-phenanthroline]

amount (A410 nm) of p-nitroaniline released per mg per 1 minute (SFase [2]; substrate 0.20 mM, no solvent): 0 A 410 nm /mg/min
Structure (SMILES): C[C@H](NC(=O)CCC(=O)O)C(=O)N[C@@H](C)C(=O)N[C@@H](C)C(=O)Nc1ccc([N+](=O)[O-])cc1 [Suc--Ala--Ala--Ala--pNA]

Structure (SMILES): Cc1ccc(S(=O)(=O)N[C@@H](CCCCN)C(=O)CCl)cc1 [TLCK, Tosyl-Lys-chloromethylketone]
inhibition of SFase (in words) (SFase [1]): inhibited by neither | remaining activity at 500 µM (SFase [1]; [4]): 112%

inhibition of SFase (in words) (SFase [1]; Table 2): inhibited by neither | remaining activity at 500 µM (SFase [1]; [3]): 101%
Structure (SMILES): Cc1ccc(S(=O)(=O)N[C@@H](Cc2ccccc2)C(=O)CCl)cc1 [TPCK, Tosyl-Phe-chloromethylketone]

amount (A410 nm) of p-nitroaniline released per mg per 1 minute (SFase [2]; substrate 0.125 mM, DMF 5.0%): 0 A 410 nm /mg/min
Structure (SMILES): CC(C)C[C@H](NC(=O)[C@H](C)NC(=O)[C@H](C)NC(=O)OCc1ccccc1)C(=O)Nc1ccc([N+](=O)[O-])cc1 [Z--Ala--Ala--Leu--pNA] (Cbz-Ala-Ala-Leu-pNA)

amount (A410 nm) of p-nitroaniline released per mg per 1 minute (SFase [2]; substrate 0.20 mM, DMF 2.0%): 0 A 410 nm /mg/min
Structure (SMILES): O=C(CNC(=O)OCc1ccccc1)N[C@@H](CO)C(=O)Nc1ccc([N+](=O)[O-])cc1 [Z--Gly--Ser--pNA] (Cbz-Gly-Ser-pNA)

remaining activity at 500 µM (SFase [1]; [3]): 0%
Structure (SMILES): CC(C)C[C@H](NC(=O)[C@H](Cc1ccccc1)NC(=O)OCc1ccccc1)C(=O)N[C@@H](CCC(=O)O)C(=O)CCl [Z--Phe--Leu--Glu--CK] (Cbz-Phe-Leu-Glu-CH2Cl)

amount (A410 nm) of p-nitroaniline released per mg per 1 minute (SFase [2]; substrate 0.20 mM, DMF 0.2%): 319.1 A 410 nm /mg/min
Structure (SMILES): CC(C)C[C@H](NC(=O)[C@H](Cc1ccccc1)NC(=O)OCc1ccccc1)C(=O)N[C@@H](CCC(=O)O)C(=O)Nc1ccc([N+](=O)[O-])cc1 [Z--Phe--Leu--Glu--pNA, Z-Phe-Leu-Glu-pNA] (Cbz-Phe-Leu-Glu-pNA)

amount (A410 nm) of p-nitroaniline released per mg per 1 minute (SFase [2]; substrate 0.20 mM, DMF 2.0%): 0 A 410 nm /mg/min
Structure (SMILES): O=C(N[C@@H](Cc1c[nH]c2ccccc12)C(=O)Nc1ccc([N+](=O)[O-])cc1)OCc1ccccc1 [Z--Trp--pNA]
